{
  "source": "patent US20220008365A1",
  "about": "“Treating Intraocular Retinoblastoma with Inhibitors of Histone Modification” (Vanderbilt University, priority 2018, published 2022)",
  "key": {"rabbit eye (retina)": {"tested_on": "rabbit eye (retina)", "test": "retinal histopathology after intravitreal injections", "format": "in vivo", "details": "3 weekly intravitreal injections; belinostat 350 μg or 700 μg; melphalan 25 μg", "method": "(§1) For the first small animal IAC model developed by the inventors and referenced above, the rabbit's dominant ophthalmic artery was endovascularly cannulated, and each drug was injected at various doses. For intravitreal experiments, 1-3 weekly injections of each drug were performed. For the assessment of ocular toxicity described above, the testing platform the inventors developed included a broad array of tests including assessment of retinal structure and function by electroretinography, photography, fluorescein angiography, OCT, and OCT-Angiography, both before and after treatment. Human WERI-Rb1 retinoblastoma xenografts were treated with either intravenous, intra-arterial, or intravitreal chemotherapy. Assessment of efficacy against vitreous seeds was by both direct quantification of seed burden (vitreous harvesting and cell counting) and by assessment of apoptosis induction by immunohistochemistry.\nThe retina looks just as healthy as the saline-treated control eye."}, "[1]": {"tested_on": "rabbit eye (retinal function)", "test": "retinal function by electroretinography after intravitreal injections", "format": "in vivo", "method": "as §1\nWe next wanted to use the toxicity assessment platform that we have developed previously (described above) to compare the toxicity of belinostat (in accordance with the present invention) to current standard-of-care melphalan. As with the efficacy experiments, rabbits received either 3 injections (weekly) of belinostat 350 μg (the effective dose in our rabbit model), or else belinostat 700 μg (double the clinically-effective dose in our rabbit model), or else melphalan 25 μg (the current, clinically-used dose)."}, "[2]": {"tested_on": "human WERI-Rb1 retinoblastoma xenografts (vitreous seeds)", "test": "rabbit model of retinoblastoma vitreous seeds, intravitreal treatment, quantification of seed burden", "format": "in vivo", "details": "for reduction in tumor cells / tumor burden compared to saline: 3 weekly intravitreal injections (belinostat 350 μg; melphalan 25 μg), eyes harvested two weeks after final injection", "method": "as §1\nTo determine efficacy and toxicity of intravitreal HDAC inhibitors for retinoblastoma treatment, vitreous seeds were generated in cyclosporine-immunosuppressed rabbits. 1,000,000 human WERI-Rb1 human retinoblastoma cells were injected into each eye. The seeds were allowed to grow for two weeks to form the types of “spherules” seen clinically with vitreous seeds. 350 μg belinostat injections were used (equivalent to approximately 700 μg in a human-sized eye). The right eye was injected with belinostat three times, weekly. The left eye was injected with saline three times, weekly. The eyes were harvested for analysis two weeks after the final injection, and subjected to the cell quantification and apoptosis induction assays described in the above paragraph.\nTo compare the efficacy of an embodiment of the present invention with melphalan treatment, rabbit eyes were treated with 3 weekly injections of 350 μg belinostat by local (intravitreal) injection as described above. The melphalan comparator group received 3 weekly injections of 25 μg melphalan (the clinically-used dose) by intravitreal injection. Eyes were harvested two weeks after the final injection. […]"}, "[3]": {"test": "intraocular pharmacokinetics after local administration", "format": "in vivo, rabbit", "details": "local administration routes (intravitreal, intra-arterial)", "method": "(§2) The present inventors have additionally determined the pharmacokinetics of belinostat when injected directly into the vitreous of the rabbit eye and have calculated its intraocular half-life in vivo. […] Specifically, once the PK curve of intravitreally-injected belinostat was determined and the half-life calculated, human retinoblastoma cells were incubated in cell culture in media containing varying concentrations of belinostat for a length of time equivalent to 5 intraocular half-lives, the media was then replaced with belinostat-free media and incubated for 7 days, and the number of surviving cells was then determined. Then, as an example, the present inventors back-calculated the initial intravitreal injection dose that would ensure that a concentration equal to or above the in vitro IC90 would be achieved even out to 5 half-lives, in vivo."}, "[4]": {"tested_on": "human retinoblastoma cells", "test": "killing of human retinoblastoma cells in cell culture", "format": "cell-based", "details": "for killing of human retinoblastoma cells by a brief pulse of HDAC inhibitor: brief pulse exposure, multiple concentrations", "method": "as §2"}, "[5]": {"details": "intra-arterial melphalan, patients; cited from earlier work"}},
  "note": "Entries after “also recorded” stand apart in the source; their conditions may differ.",
  "data": [
    {"smiles": "O=C(/C=C/c1cccc(S(=O)(=O)Nc2ccccc2)c1)NO", "note": "[belinostat, N hydroxy-3-(3-phenylsulfamoyl-phenyl)-acrylamide]", "values": [
      {"measurement": "retinal architecture on histopathology", "setting": "rabbit eye (retina)", "result": "retained normal retinal architecture and healthy-appearing retina; also recorded: no evidence of retinal degeneration"},
      {"measurement": "ERG parameters (retinal function)", "setting": "[1]; intravitreal belinostat 700 μg (double the clinically-effective dose), 3 weekly injections", "result": "only mild worsening of ERG parameters"},
      {"measurement": "retinal functional loss and toxicity (A wave and B wave amplitude, FIG. 3)", "setting": "[1]; rabbit, in vivo", "result": "(absence of) retinal functional loss"},
      {"measurement": "retinal toxicity or structural damage", "setting": "[1]; rabbit, in vivo", "result": "no such retinal toxicity or structural damage"},
      {"measurement": "response of vitreous tumor seeds (photographs, FIG. 1)", "setting": "[2]; 350 μg belinostat intravitreal, three times weekly, vs saline-treated left eye", "result": "eradication of retinoblastoma vitreous seeds"},
      {"measurement": "reduction in tumor cells / tumor burden compared to saline", "setting": "[2]", "result": 95, "unit": "%"},
      {"measurement": "intraocular concentrations", "setting": "[3]", "result": "very high intraocular concentrations, but of very brief duration"},
      {"measurement": "killing of human retinoblastoma cells by a brief pulse of HDAC inhibitor", "setting": "[4]", "result": "can be killed by exposure to a brief pulse"},
      {"measurement": "killing of human retinoblastoma cells in vitro", "setting": "[4]; in vitro", "result": "effective for killing human retinoblastoma cells in vitro"}
    ]},
    {"smiles": "Nc1ccccc1NC(=O)c1ccc(CNC(=O)OCc2cccnc2)cc1", "note": "[etinostat]", "values": [
      {"measurement": "killing of human retinoblastoma cells by a brief pulse of HDAC inhibitor", "setting": "[4]", "result": "can be killed by exposure to a brief pulse"}
    ]},
    {"smiles": "N[C@@H](Cc1ccc(N(CCCl)CCCl)cc1)C(=O)O", "note": "[melphalan]", "values": [
      {"measurement": "retinal architecture on histopathology", "setting": "rabbit eye (retina)", "result": "severe atrophy of the retina; also recorded: evidence of retinal degeneration"},
      {"measurement": "retinal toxicity or structural damage", "setting": "[1]; intravitreal injection, dose not given", "result": "retinal structural damage"},
      {"measurement": "reduction in measured retinal function (electroretinography amplitudes)", "setting": "[1]; intravitreal melphalan 25 μg, 3 weekly injections, across all parameters measured", "result": "66-90%"},
      {"measurement": "reduction in tumor cells / tumor burden compared to saline", "setting": "[2]", "result": 93, "unit": "%"},
      {"measurement": "rates of complications", "setting": "[5]", "result": "~40", "unit": "%"}
    ]},
    {"smiles": "Cc1[nH]c2ccccc2c1CCNCc1ccc(/C=C/C(=O)NO)cc1", "note": "[panobinostat]", "values": [
      {"measurement": "killing of human retinoblastoma cells by a brief pulse of HDAC inhibitor", "setting": "[4]", "result": "can be killed by exposure to a brief pulse"}
    ]}
  ]
}
